Consider 6 compounds from publication PMC9077236, “Gs protein peptidomimetics as allosteric modulators of the β2-adrenergic receptor” (RSC Advances, 2018).

A short description of the series: CuAAC (i,i+4) side-chain stapling of azidolysine with propargylglycine or O-propargylserine; CuSO4·5H2O (1 eq), Na ascorbate (5 eq); from crude linear peptides. The conditions noted are these: the molecule shown is the open-chain precursor, tBuOH/H2O 1:2, 0.5 mM, 25.0 °C.

In turn, `C#CC[C@H](NC(=O)[C@H](CCCC)NC(=O)[C@H](CCCNC(=N)N)NC(=O)[C@H](CCC(N)=O)NC(=O)[C@@H](CCCCN=[N+]=[N-])NC(=O)[C@@H](NC(=O)[C@H](CC(=O)O)NC(=O)[C@H](CCCNC(=N)N)NC(C)=O)[C@@H](C)CC)C(=O)N[C@@H](CC(C)C)C(=O)N[C@@H](CCCNC(=N)N)C(=O)N[C@@H](CCC(N)=O)C(=O)N[C@@H](Cc1ccc(O)cc1)C(=O)N[C@@H](CCC(=O)O)C(=O)N[C@@H](CC(C)C)C(=O)N[C@@H](CC(C)C)C(=O)O` [Ac-R-D-I-(D-K(N3))-Q-R-Nle-Pra-L-R-Q-Y-E-L-L-OH] came in with a ring closure, overall yield (21-membered ring) of 11%.

As for `C#CCOC[C@H](NC(=O)[C@H](CCCC)NC(=O)[C@H](CCCNC(=N)N)NC(=O)[C@H](CCC(N)=O)NC(=O)[C@@H](CCCCN=[N+]=[N-])NC(=O)[C@@H](NC(=O)[C@H](CC(=O)O)NC(=O)[C@H](CCCNC(=N)N)NC(C)=O)[C@@H](C)CC)C(=O)N[C@@H](CC(C)C)C(=O)N[C@@H](CCCNC(=N)N)C(=O)N[C@@H](CCC(N)=O)C(=O)N[C@@H](Cc1ccc(O)cc1)C(=O)N[C@@H](CCC(=O)O)C(=O)N[C@@H](CC(C)C)C(=O)N[C@@H](CC(C)C)C(=O)O` [Ac-R-D-I-(D-K(N3))-Q-R-Nle-Ser(O-propargyl)-L-R-Q-Y-E-L-L-OH], for the setting “23-membered ring”, the ring closure, overall yield was 13%.

For the compound `C#CC[C@H](NC(=O)[C@H](CCCNC(=N)N)NC(=O)[C@H](CC(C)C)NC(=O)[C@H](Cc1cnc[nH]1)NC(=O)[C@@H](CCCCN=[N+]=[N-])NC(=O)[C@H](CCCNC(=N)N)NC(=O)[C@H](CCC(N)=O)NC(=O)[C@@H](NC(=O)[C@@H](NC(=O)[C@H](CC(=O)O)NC(=O)[C@H](CCCNC(=N)N)NC(C)=O)[C@@H](C)CC)[C@@H](C)CC)C(=O)N[C@@H](Cc1ccc(O)cc1)C(=O)N[C@@H](CCC(=O)O)C(=O)N[C@@H](CC(C)C)C(=O)N[C@@H](CC(C)C)C(=O)O` [Ac-R-D-I-I-Q-R-(D-K(N3))-H-L-R-Pra-Y-E-L-L-OH], the ring closure, overall yield (21-membered ring, 1.0 h) amounted to 26%.

`C#CCOC[C@H](NC(=O)[C@H](CCCNC(=N)N)NC(=O)[C@H](CC(C)C)NC(=O)[C@H](Cc1cnc[nH]1)NC(=O)[C@@H](CCCCN=[N+]=[N-])NC(=O)[C@H](CCCNC(=N)N)NC(=O)[C@H](CCC(N)=O)NC(=O)[C@@H](NC(=O)[C@@H](NC(=O)[C@H](CC(=O)O)NC(=O)[C@H](CCCNC(=N)N)NC(C)=O)[C@@H](C)CC)[C@@H](C)CC)C(=O)N[C@@H](Cc1ccc(O)cc1)C(=O)N[C@@H](CCC(=O)O)C(=O)N[C@@H](CC(C)C)C(=O)N[C@@H](CC(C)C)C(=O)O` [Ac-R-D-I-I-Q-R-(D-K(N3))-H-L-R-Ser(O-propargyl)-Y-E-L-L-OH]: under “23-membered ring, 3.0 h”, the ring closure, overall yield worked out at 11%.

In the case of `C#CC[C@H](NC(=O)[C@H](CCCNC(=N)N)NC(=O)[C@H](CC(C)C)NC(=O)[C@H](Cc1cnc[nH]1)NC(=O)[C@H](CCCCN=[N+]=[N-])NC(=O)[C@H](CCCNC(=N)N)NC(=O)[C@H](CCC(N)=O)NC(=O)[C@@H](NC(=O)[C@@H](NC(=O)[C@H](CC(=O)O)NC(=O)[C@H](CCCNC(=N)N)NC(C)=O)[C@@H](C)CC)[C@@H](C)CC)C(=O)N[C@@H](Cc1ccc(O)cc1)C(=O)N[C@@H](CCC(=O)O)C(=O)N[C@@H](CC(C)C)C(=O)N[C@@H](CC(C)C)C(=O)O` [Ac-R-D-I-I-Q-R-K(N3)-H-L-R-Pra-Y-E-L-L-OH], the ring closure, overall yield (21-membered ring, 3.0 h) was determined as 10%.

Consider `C#CCOC[C@H](NC(=O)[C@H](CCCNC(=N)N)NC(=O)[C@H](CC(C)C)NC(=O)[C@H](Cc1cnc[nH]1)NC(=O)[C@H](CCCCN=[N+]=[N-])NC(=O)[C@H](CCCNC(=N)N)NC(=O)[C@H](CCC(N)=O)NC(=O)[C@@H](NC(=O)[C@@H](NC(=O)[C@H](CC(=O)O)NC(=O)[C@H](CCCNC(=N)N)NC(C)=O)[C@@H](C)CC)[C@@H](C)CC)C(=O)N[C@@H](Cc1ccc(O)cc1)C(=O)N[C@@H](CCC(=O)O)C(=O)N[C@@H](CC(C)C)C(=O)N[C@@H](CC(C)C)C(=O)O` [Ac-R-D-I-I-Q-R-K(N3)-H-L-R-Ser(O-propargyl)-Y-E-L-L-OH], for which the ring closure, overall yield (23-membered ring, 2.0 h) is 14%.
